Test results reported in the NIST ThermoML archive (doi:10.1016/j.jct.2007.04.005).

Assay: xn = mol fraction of the nth substance listed
Settings: 318.15 K, Liquid

CCCCCCCCC [nonane] + C1CCCCC1
mass density [kg/m3]
Settings | x2 = 0 | x2 = 0.09303 | x2 = 0.2009 | x2 = 0.3051 | x2 = 0.417 | x2 = 0.512 | x2 = 0.5996 | x2 = 0.7052 | x2 = 0.7993 | x2 = 0.9039
18340 kPa | – | – | – | – | – | – | – | 745.3 | 752.1 | 761.1
20370 kPa | 715 | 717.9 | 721.8 | 725.9 | 730.6 | 735.2 | 740.2 | 746.9 | 753.7 | 762.7
22390 kPa | 716.5 | 719.4 | 723.3 | 727.4 | 732.2 | 736.7 | 741.8 | 748.4 | 755.3 | 764.3
24420 kPa | 717.9 | 720.8 | 724.8 | 728.8 | 733.6 | 738.2 | 743.3 | 749.9 | 756.8 | 765.8
26450 kPa | 719.4 | 722.3 | 726.2 | 730.3 | 735.1 | 739.7 | 744.8 | 751.4 | 758.3 | 767.4
28470 kPa | 720.8 | 723.6 | 727.6 | 731.7 | 736.5 | 741.1 | 746.2 | 752.9 | 759.8 | 768.9
29490 kPa | 721.4 | 724.3 | 728.3 | 732.4 | 737.2 | 741.8 | 746.9 | 753.6 | 760.5 | 769.6
30500 kPa | 722.1 | 725 | 729 | 733.1 | 737.9 | 742.5 | 747.6 | 754.3 | 761.2 | 770.3
32530 kPa | 723.4 | 726.4 | 730.4 | 734.4 | 739.3 | 743.8 | 749 | 755.7 | 762.6 | 771.7
34550 kPa | 724.8 | 727.7 | 731.8 | 735.8 | 740.6 | 745.2 | 750.4 | 757.1 | 764 | 773.2
36580 kPa | 726.1 | 729 | 733.1 | 737.1 | 742 | 746.6 | 751.7 | 758.5 | 765.4 | 774.5
38600 kPa | 727.5 | 730.4 | 734.5 | 738.5 | 743.3 | 748 | 753.1 | 759.9 | 766.8 | 776
39620 kPa | 728.1 | 731 | 735.1 | 739.1 | 744 | 748.6 | 753.8 | 760.6 | 767.5 | 776.7
